Assay results reported in paper PMC9999251, “Pyrazole-based lamellarin O analogues: synthesis, biological evaluation and structure–activity relationships” (RSC Advances, 2023).
Values belong to the molecule of their own block, whether it stands above or below them.

Columns and labels:
[1] = Determination of HPLC–log P; type: physicochemical; conditions: reversed-phase HPLC on apHera C18 column; methanol / 0.01 M phosphate buffer pH 7.4; mean ± SD
Protocol: HPLC–log P values were determined using Shimadzu HPLC system equipped with apHera C18 column (10 × 6 mm, 5 μm, Supelco, Bellefonte, PA, USA). Each sample was dissolved in the internal standard mixture, consisting of triphenylene (99.9%, Carl Roth) and toluene (≥98%, Sigma-Aldrich). Analysis was performed at 1.5 mL min^−1 flow rate in the linear gradient where mobile phase consisted of methanol and 0.01 M phosphate buffer (pH 7.4). The HPLC–log P values were calculated from the measured retention times using previously published equation.[57]

[2] = test system: HCT116 cells; experiment: Cell viability (MTT assay), HCT116; type: cell-based; conditions: Homo sapiens, HCT-116, 96 h treatment, read-out: GI50 ± SD HCT116
Protocol: (§1) SW480 (human colon adenocarcinoma, adherent, epithelial, ATCC number: CCL-228), HT29 (human colon adenocarcinoma, adherent, epithelial, ATCC number: HTB-38), and HCT116 (human colon adenocarcinoma, adherent, epithelial-like, ATCC number: CCL-247) cells were maintained in RPMI-1640 medium (Sigma-Aldrich). Medium was supplemented with heat-inactivated FBS (Biowest), penicillin–streptomycin (Sigma; with 10 000 units penicillin and 10 mg streptomycin per mL in 0.9% NaCl) and L-glutamine (Sigma; 200 mM solution). Cell cultures were cultivated at 37 °C, maintaining a humidified atmosphere consisting of 5% CO2. Gibco™ trypsin–EDTA (0.05%) was used for cell passage.
(§2) To evaluate cell viability, SW480, HT29, and HCT116 cells were harvested from culture flasks by trypsinization and seeded into 96-well plates in 4000 cells per well, 3000 cells per well and 4000 cells per well densities, respectively. After 24 h preincubation period, cells were treated in triplicates with nine different doses of each compound (6a–o and 7a–c) for 96 h. After treatment compound solutions were replaced with MTT solution (MTT reagent in PBS, […]) diluted in a 6 : 1 ratio in non-supplemented RPMI-1640 medium and were additionally incubated for 2 h. After incubation, the medium was removed, and formazan product was dissolved in DMSO. Optical densities were measured at 550 nm with TECAN Infinite® M200 PRO microplate reader using a reference wavelength of 690 nm to correct unspecific absorption. The quantity of viable cells was normalized to untreated controls. The GI50 values were calculated from dose–response curves.

[3] = test system: SW480 cells; experiment: Cell viability (MTT assay), SW480; type: cell-based; conditions: Homo sapiens, SW480, 96 h, 96 h treatment, read-out: GI50 ± SD SW480
Protocol: as §1, §2

[4] = test system: HT29 cells; experiment: Cell viability (MTT assay), HT29; type: cell-based; conditions: Homo sapiens, HT-29, 96 h treatment, read-out: GI50 ± SD HT29
Protocol: as §1, §2

[5] = molecular target: T1, human serum albumin (Homo sapiens, UniProt P02768); experiment: Plasma protein binding (PPB), HPLC on albumin-bound stationary phase; type: in vitro ADME; conditions: pH 7.4, binding to human serum albumin, HPLC method
T1 construct: purchased Chiral Technologies, DAICEL Group, Europe SAS, France CHIRALPAK®HAS (50 × 3 mm, 5 μm)
Protocol: Retention times of the analytes were measured with Shimadzu HPLC system on the CHIRALPAK®HAS stationary phase (50 × 3 mm, 5 μm, Chiral Technologies, DAICEL Group, Europe SAS, France). The mobile phase A consisted of 50 mM aqueous ammonium acetate buffer (pH 7.4) and phase B of 2-propanol according to Valko et al.[65] Analysis was performed at prolonged 1 mL min^−1 flow rate in the linear gradient. Retention capacity factors (k′) were calculated by using DMSO or a substance with 0% HAS binding for systems' dead time (Rt0). The system was calibrated by injecting the reference compounds: acetylsalicylic acid (CAS 69-72-7), betamethasone (CAS 378-44-9), budesonide (CAS 5133-22-3), carbamazepine (CAS 298-46-4), cimetidine (CAS 51481-61-9), ciprofloxacin (CAS 85721-33-1), indomethacin (CAS 53-86-1), isoniazid (CAS 54-85-3), metronidazole (CAS 443-48-1), nicardipine (CAS 55985-32-5), nizatidine (CAS 76963-41-2) and warfarin (CAS 81-81-2) obtained from Sigma-Aldrich, diclofenac (CAS 15307-86-5) from EMD Chemicals Inc., flumazenil (CAS 78755-81-4) from ABX and ketoprofen (CAS 22071-15-4) from LKT Labs. The logarithmic capacity factors of the references' Rt (log(k′)) on the HSA column were plotted against the %PPB values from literature. The slope and the intercept were used to convert the log(k′) of the compounds (6a, c, f, h, m–o) to %PPB using the regression equation.[66]

T1 sequence (P02768 25-609): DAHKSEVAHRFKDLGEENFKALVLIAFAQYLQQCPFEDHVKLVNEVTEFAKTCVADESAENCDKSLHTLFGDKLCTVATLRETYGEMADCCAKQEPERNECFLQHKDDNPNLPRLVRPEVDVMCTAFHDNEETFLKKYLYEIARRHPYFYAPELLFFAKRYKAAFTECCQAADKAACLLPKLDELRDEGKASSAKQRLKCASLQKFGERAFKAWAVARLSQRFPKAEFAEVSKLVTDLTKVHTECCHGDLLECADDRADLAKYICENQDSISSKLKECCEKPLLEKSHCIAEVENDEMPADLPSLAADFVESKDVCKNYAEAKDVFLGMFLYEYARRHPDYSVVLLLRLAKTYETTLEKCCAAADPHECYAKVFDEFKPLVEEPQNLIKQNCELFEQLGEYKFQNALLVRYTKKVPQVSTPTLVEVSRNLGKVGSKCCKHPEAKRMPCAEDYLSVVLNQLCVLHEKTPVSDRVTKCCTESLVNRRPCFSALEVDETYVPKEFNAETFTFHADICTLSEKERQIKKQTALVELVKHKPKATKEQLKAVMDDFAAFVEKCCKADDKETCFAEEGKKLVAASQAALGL

SMILES: COC(=O)c1c(-c2ccccc2)c(-c2ccccc2)nn1CC(=O)c1ccccc1 [Compound 7a, Methyl 1-(2-oxo-2-phenylethyl)-3,4-diphenyl-1H-pyrazole-5-carboxylate]
- chromatographic logP [1]: 4.279 ± 0.005
- GI50 [2]: > 20 µM
- GI50 [3]: > 20 µM
- melting point: 138 to 139 °C
- GI50 [4]: > 20 µM

SMILES: O=C(Cn1nc(-c2ccccc2)c(-c2ccccc2)c1C(=O)O)c1ccccc1 [6a′, 1-(2-Oxo-2-phenylethyl)-3,4-diphenyl-1H-pyrazole-5-carboxylic acid]
- melting point: 209 to 210 °C

SMILES: CCOC(=O)c1c(-c2ccccc2)c(-c2ccccc2)nn1CC(=O)c1ccccc1 [Compound 6a, Ethyl 1-(2-oxo-2-phenylethyl)-3,4-diphenyl-1H-pyrazole-5-carboxylate]
- chromatographic logP [1]: 4.381 ± 0.002
- GI50 [2]: 5.46 ± 0.393 µM
- GI50 [3]: > 20 µM
- fraction unbound [5]: 0.046
- melting point: 112 to 113 °C
- GI50 [4]: > 20 µM

SMILES: COC(=O)c1c(-c2ccccc2)c(-c2ccccc2)nn1CC(=O)c1ccc(F)cc1 [Compound 7c, Methyl 1-[2-(4-fluorophenyl)-2-oxoethyl]-3,4-diphenyl-1H-pyrazole-5-carboxylate]
- chromatographic logP [1]: 4.327 ± 0.007
- GI50 [2]: 2.7 ± 0.689 µM
- melting point: 114 to 115 °C
- GI50 [4]: 9.72 ± 3.71 µM

SMILES: CCOC(=O)c1c(-c2ccccc2)c(-c2ccccc2)nn1CC(=O)c1ccc(O)cc1 [Compound 6e, Ethyl 1-[2-(4-hydroxyphenyl)-2-oxoethyl]-3,4-diphenyl-1H-pyrazole-5-carboxylate]
- chromatographic logP [1]: 3.803 ± 0.012
- GI50 [2]: > 20 µM
- GI50 [3]: > 20 µM
- melting point: 143 to 144 °C
- GI50 [4]: > 20 µM

SMILES: CCOC(=O)c1c(-c2ccccc2)c(-c2ccc(F)cc2)nn1CC(=O)c1ccccc1 [Compound 6j, Ethyl 3-(4-fluorophenyl)-1-(2-oxo-2-phenylethyl)-4-phenyl-1H-pyrazole-5-carboxylate]
- chromatographic logP [1]: 4.49 ± 0.006
- GI50 [2]: 3.75 ± 1.06 µM
- GI50 [3]: 9.24 ± 2.15 µM
- melting point: 135 to 136 °C
- GI50 [4]: 13.8 ± 0.861 µM

SMILES: CCOC(=O)c1c(-c2ccccc2)c(-c2ccccc2)nn1CC(=O)c1ccc(Cl)cc1 [Compound 6d, Ethyl 1-[2-(4-chlorophenyl)-2-oxoethyl]-3,4-diphenyl-1H-pyrazole-5-carboxylate]
- chromatographic logP [1]: 4.711 ± 0.006
- GI50 [2]: 14.5 ± 3.92 µM
- GI50 [3]: > 20 µM
- melting point: 135 to 136 °C
- GI50 [4]: > 20 µM

The remaining lines, values ahead:

- chromatographic logP [1]: 4.499 ± 0.006
- GI50 [2]: 5.05 ± 1.16 µM
- GI50 [3]: 8.28 ± 2.34 µM
- melting point: 87 to 88 °C
- GI50 [4]: > 20 µM
SMILES: CCOC(=O)c1c(-c2ccc(OC)cc2)c(-c2ccc(F)cc2)nn1CC(=O)c1ccccc1 [Compound 6l, Ethyl 3-(4-fluorophenyl)-4-(4-methoxyphenyl)-1-(2-oxo-2-phenylethyl)-1H-pyrazole-5-carboxylate]

- chromatographic logP [1]: 4.531 ± 0.006
- GI50 [2]: 2.07 ± 1.45 µM
- GI50 [3]: 4.76 ± 2.33 µM
- fraction unbound [5]: 0.062
- melting point: 104 to 105 °C
- GI50 [4]: 4.76 ± 2.33 µM
SMILES: CCOC(=O)c1c(-c2ccc(OC)cc2)c(-c2ccc(OC)cc2)nn1CC(=O)c1ccc(F)cc1 [Compound 6h, Ethyl 1-[2-(4-fluorophenyl)-2-oxoethyl]-3,4-bis(4-methoxy-phenyl)-1H-pyrazole-5-carboxylate]

- chromatographic logP [1]: 4.564 ± 0.004
- GI50 [2]: 2.1 ± 0.198 µM
- GI50 [3]: 1.64 ± 0.022 µM
- fraction unbound [5]: 0.047
- melting point: 81 to 82 °C
- GI50 [4]: 6.78 ± 0.463 µM
SMILES: CCOC(=O)c1c(-c2ccc(OC)cc2)c(-c2ccc(F)cc2)nn1CC(=O)c1ccc(F)cc1 [Compound 6n, Ethyl 3-(4-fluorophenyl)-1-[2-(4-fluorophenyl)-2-oxoethyl]-4-(4-methoxyphenyl)-1H-pyrazole-5-carboxylate]

- chromatographic logP [1]: 4.546 ± 0.005
- GI50 [2]: 3.39 ± 0.62 µM
- GI50 [3]: 7.81 ± 2.02 µM
- melting point: 103 to 104 °C
- GI50 [4]: 11.1 ± 2.62 µM
SMILES: CCOC(=O)c1c(-c2ccc(F)cc2)c(-c2ccc(F)cc2)nn1CC(=O)c1ccccc1 [Compound 6k, Ethyl 3,4-bis(4-fluorophenyl)-1-(2-oxo-2-phenylethyl)-1H-pyrazole-5-carboxylate]

- chromatographic logP [1]: 4.598 ± 0.004
- GI50 [2]: 2.36 ± 0.039 µM
- GI50 [3]: 2.09 ± 0.032 µM
- fraction unbound [5]: 0.029
- melting point: 105 to 106 °C
- GI50 [4]: 6.67 ± 2.12 µM
SMILES: CCOC(=O)c1c(-c2ccc(F)cc2)c(-c2ccc(F)cc2)nn1CC(=O)c1ccc(F)cc1 [Compound 6o, Ethyl 3,4-bis(4-fluorophenyl)-1-[2-(4-fluorophenyl)-2-oxoethyl]-1H-pyrazole-5-carboxylate]

- chromatographic logP [1]: 4.462 ± 0.005
- GI50 [2]: 2.29 ± 0.218 µM
- GI50 [3]: > 20 µM
- fraction unbound [5]: 0.061
- melting point: 62 to 63 °C
- GI50 [4]: > 20 µM
SMILES: CCOC(=O)c1c(-c2ccc(OC)cc2)c(-c2ccc(OC)cc2)nn1CC(=O)c1ccccc1 [Compound 6f, Ethyl 3,4-bis(4-methoxyphenyl)-1-(2-oxo-2-phenylethyl)-1H-pyrazole-5-carboxylate]

- chromatographic logP [1]: 4.531 ± 0.004
- GI50 [2]: > 20 µM
- GI50 [3]: > 20 µM
- melting point: 67 to 68 °C
- GI50 [4]: > 20 µM
SMILES: CCOC(=O)c1c(-c2ccc(OC)cc2)c(-c2ccc(OC)cc2)nn1CC(=O)c1ccc(OC)cc1 [Compound 6g, Ethyl 3,4-bis(4-methoxyphenyl)-1-[2-(4-methoxyphenyl)-2-oxoethyl]-1H-pyrazole-5-carboxylate]

- chromatographic logP [1]: 4.468 ± 0.006
- GI50 [2]: > 20 µM
- GI50 [3]: > 20 µM
- melting point: 144 to 145 °C
- GI50 [4]: > 20 µM
SMILES: CCOC(=O)c1c(-c2ccccc2)c(-c2ccccc2)nn1CC(=O)c1ccc(OC)cc1 [Compound 6b, Ethyl 1-[2-(4-methoxyphenyl)-2-oxoethyl]-3,4-diphenyl-1H-pyrazole-5-carboxylate]

- chromatographic logP [1]: 4.784 ± 0.005
- GI50 [2]: > 20 µM
- GI50 [3]: > 20 µM
- melting point: 132 to 133 °C
- GI50 [4]: > 20 µM
SMILES: CCOC(=O)c1c(-c2ccc(OC)cc2)c(-c2ccc(OC)cc2)nn1CC(=O)c1ccc(Cl)cc1 [Compound 6i, Ethyl 1-[2-(4-chlorophenyl)-2-oxoethyl]-3,4-bis(4-methoxy-phenyl)-1H-pyrazole-5-carboxylate]

- chromatographic logP [1]: 4.347 ± 0.007
- GI50 [2]: > 20 µM
- GI50 [3]: > 20 µM
- melting point: 163 to 164 °C
- GI50 [4]: > 20 µM
SMILES: COC(=O)c1c(-c2ccccc2)c(-c2ccccc2)nn1CC(=O)c1ccc(OC)cc1 [Compound 7b, Methyl 1-[2-(4-methoxyphenyl)-2-oxoethyl]-3,4-diphenyl-1H-pyrazole-5-carboxylate]
